In patent US11828759B2, “Method of diagnosis” (Peter MacCallum Cancer Institute, priority 2016, dated 2023):
Entries after “also recorded” stand apart in the source; their conditions may differ. Values belong to the molecule of their own block, whether it stands above or below them.

How the values were obtained:
MDA-MB-231 cells = assay: 3D culture / co-culture invasion model on reconstituted basement membrane; type: cell-based, human; settings: for invasive protrusions / invasive outgrowths of co-cultures: MDA-MB-231 co-cultured 1:1 with N1ME stefin A low myoepithelial cells, 50 μM inhibitor in media, refreshed every 48 hours, vs DMSO control, n=3
Method: All 3D cultures were performed using CULTREX® (Trevigen, Gaithersburg, MD, 3433-005-01) similar to previously described (Mullins et al.). Briefly, 8 well chambers (THERMOFISHER, NUN155409) were coated with 100% CULTREX and allowed to solidify at 37° C. Cells (pre-mixed at 1:1 ratio) were seeded on top of the solidified CULTREX and allowed to adhere for 60-90 minutes before 2% CULTREX in MEGM media (LONZA) was overlaid. Media was changed every 4 days unless otherwise stated. On day 7, Z-stacks were captured on a ZEISS LSM 780 inverted confocal microscope, and 3D-reconstructions were created using IMARIS.
Bright-field images at 40× magnification were taken on the Olympus BX41 using a DP25 camera and DP2-BSW software (Olympus, TYO, Japan) to observe overall multicellular morphology. Nuclei were labelled with cell permeable Hoechst (Thermo Scientific, MA, USA, 33342) and rinsed with PBS. Confocal microscopy was performed on a Zeiss LSM 780 inverted confocal microscope (Zeiss, Thornwood, NY, USA) with a 10×/0.45 air-objective, with 37° C., 5% CO2 incubation. Z-stacks were captured using ZEN software (Zeiss) and 3D-reconstructions were created using IMARIS (Bitplane, Switzerland) including volume rendering.
Images of 3D cultures were processed and analyzed using the Fiji distribution of IMAGEJ (Schindelin et al. 2012) as follows. Extraction and mask generation of the individual cultures was carried out by applying an edge filter followed by an unsharp mask (radius=6, mask=0.8). The resulting image was blurred using a Gaussian filter (sigma=4) to make subsequent thresholding more accurate. A threshold was applied, manually adjusted if required and used to create a binary mask. The resulting mask was filtered by size to remove small, erroneous, debris. Each individual 3D cultures mask was then measured for its perimeter and convex hull lengths. […]
All statistics were calculated and graphed using PRISM version 7. […] Variation in mean convex hull to perimeter ratio was determined using one-way ANOVA followed by Tukey's post hoc analysis.

DSG3 = assay: Western blot of DSG3 in N1ME cells and conditioned media after CA-074 treatment; type: cell-based, human; settings: CA-074 for 72 hours vs DMSO
Method: (§1) Cells were lysed by freezing in citrate buffer (50 mM citrate, pH 5.5, 0.5% CHAPS, 0.1% TRITON™ X-100, 4 mM DTT). For cathepsin B activity gels, activity-based probes [GB123 (1 μM) (29) or BMV109 (0.1 μM) (Verdoes et al. 2013)] were added to lysates from a 100×stock, and proteins were incubated for 30 minutes at 37° C. The addition of 4×sample buffer (40% glycerol, 200 mM Tris-HCl pH 6.8, 0.04% bromophenol blue, 5% beta-mercaptoethanol) stopped the reaction with boiling for 10 minutes. Proteins (30-50 μg) were separated by SDS-PAGE (on either 15% acrylamide or gradient 4-20% gels, precast from BIO-RAD, CA, USA) and visualized using a TYPHOON flatbed laser scanner (GE Healthcare, UK) for Cy5 fluorescence. For immunoblotting, proteins were transferred to nitrocellulose membranes and subjected to standard Western blotting protocols. Membranes were incubated with 1 μg/ml primary antibodies against stefin A, cathepsin B (R&D Systems, Minneapolis, USA, AF965), DSG3 (Life Technologies, 326300), E-cadherin (Novus, NB-110-56937), or 1:10,000 dilutions of β-actin (Sigma-Aldrich, MO, USA, A22280) or GAPDH (Cell Signaling Technology, MA, USA, 8884). Signal was detected using ECL (GE Healthcare), G:Box GelDoc (Syngene, CBG, UK) and GeneSys (Syngene) software with automatic exposure.
(§2) To collect secreted proteins, cells were incubated in serum free media for 24 hours. […]

E-cadherin = assay: Western blot of E-cadherin in N1ME cells and supernatant after CA-074 treatment; type: cell-based, human; settings: N1ME stefin A wild type or stefin A low cells; CA-074 for 72 hours
Method: as §1, §2

[1] = system: MMTV-PyMT mice (spontaneous mammary gland tumors); assay: MMTV-PyMT mouse model of DCIS-to-invasive transition; type: in vivo; settings: 50 mg/kg intraperitoneal daily, day 30-49
Method: Mouse investigations were performed after approval by the La Trobe University Animal Ethics Committee. Bl/6 MMTV-PyMT positive female mice were injected (intraperitoneal, 200 μl/20 g mouse) daily with 50 mg/kg CA-074 or vehicle (5% DMSO/saline) from day 30-49. On day 50, mice were culled and second, third and fourth mammary glands were resected and sent for histology. Mouse tissues were fixed in 10% buffered formalin for 6 hours and paraffin-embedded. Sections at three different depths throughout the mammary gland were taken and were stained with hematoxylin and eosin according to standard protocols. Alternatively, sections were stained with 1 μg/ml anti-α-smooth muscle actin (ABCAM, ab66133) or with isotype control antibodies, as above. Sections were scored by a pathologist blinded to treatment groups (Sandra O'Toole) for the presence of invasive regions of cancer growth within the mammary gland. Experiment included 8 mice per group.

cathepsin B = molecular target: T1, cathepsin B (Homo sapiens, UniProt P07858); assay: Stefin A in vitro inhibition of cathepsin B in N1ME cell lysate (BMV109 activity based probe); type: biochemical; settings: increasing concentrations of recombinant stefin A, 15 min at 37 C
T1 construct: SDS-PAGE gel electrophoresis of N1ME cell lysate incubated with increasing concentrations of recombinant stefin A; endogenous in cells; host or cells: N1ME (hTERT-immortalized human myoepithelial cells), lysed in citrate buffer pH 5.5
Method: as §1, with “exposure. […]” for “exposure.”

cathepsin L = molecular target: T2, cathepsin L (Homo sapiens, UniProt P07711); assay: Stefin A in vitro inhibition of cathepsin L in N1ME cell lysate (BMV109 activity based probe); type: biochemical; settings: increasing concentrations of recombinant stefin A, 15 min at 37 C
T2 construct: SDS-PAGE gel electrophoresis of N1ME cell lysate incubated with increasing concentrations of recombinant stefin A; endogenous in cells; host or cells: N1ME (hTERT-immortalized human myoepithelial cells), lysed in citrate buffer pH 5.5
T2 sequence (P07711 114-333): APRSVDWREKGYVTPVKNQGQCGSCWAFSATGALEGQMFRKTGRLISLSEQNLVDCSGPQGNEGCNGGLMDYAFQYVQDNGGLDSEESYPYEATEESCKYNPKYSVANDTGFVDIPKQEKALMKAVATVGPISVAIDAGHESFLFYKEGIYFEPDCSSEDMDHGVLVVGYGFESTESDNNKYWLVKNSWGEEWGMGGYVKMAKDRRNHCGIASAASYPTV

Molecule: CCCNC(=O)[C@H]1O[C@@H]1C(=O)N[C@H](C(=O)N1CCC[C@H]1C(=O)O)[C@@H](C)CC [CA-074]
invasive protrusions / invasive outgrowths of co-cultures (MDA-MB-231 cells): rescued the phenotype caused by stefin A loss
DSG3 protein in whole cell lysates (DSG3; N1ME stefin A low cells): rescued in whole cell lysates; also recorded: an increase in protein was noted for DSG3
cleaved extracellular domain of DSG3 (ecto-DSG3) in conditioned media (DSG3; N1ME wild type and stefin A low cells): decreased the cleaved extracellular domain of DSG3
E-cadherin expression in whole cell lysates or ecto-protein (E-cadherin): did not affect E-cadherin expression
mice progressed to IDC at experimental endpoint ([1]; glands scored at day 50, 8 mice per group, control 6/8): 2/8
number of invasive regions throughout the mammary gland ([1]; vs DMSO control): decreased the number of invasive regions

Molecule: JPM-OEt
invasive protrusions / invasive outgrowths of co-cultures (MDA-MB-231 cells): reverted the invasive protrusions in the co-cultures, however not to the same extent as CA-074, and was not statistically significant

cathepsin B activity (cathepsin B): can be inhibited
cathepsin L activity (cathepsin L): can be inhibited
B1: recombinant stefin A: recombinant stefin A (R&D Systems, 1407-PI-050), an 11 kDa cysteine protease inhibitor (protein, UniProt P01040 1-98, looked up)
Cystatin-A: MIPGGLSEAKPATPEIQEIVDKVKPQLEEKTNETYGKLEAVQYKTQVVAGTNYYIKVRAGDNKYMHLKVFKSLPGQNEDLVLTGYQVDKNKDDELTGF
invasion of MDA-MB-231 cells cultured alone (MDA-MB-231 cells; MDA-MB-231 alone, without myoepithelial cells): did not inhibit invasion
